PubChem BioAssay (NCI)
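Following 48 hours of exposure in 96-well plates, responses at five concentrations were used to interpolate endpoints linearly. The concentration for 50% growth inhibition is given as GI50. TGI marks complete inhibition of growth.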

Experiments:
Test in all cases: DTP human tumour cell line panel, 48 h; in the data active means GI50 below about 0.43 µM; inactive means the rest
[1] = system: OVCAR-5 ovarian
[2] = system: SK-MEL-28 melanoma
[3] = system: MDA-MB-435
[4] = system: A498 renal
[5] = system: BT-549 breast
[6] = system: U251 CNS
[7] = system: PC-3 prostate
[8] = system: MALME-3M melanoma
[9] = system: MCF7 breast
[10] = system: RPMI-8226 leukemia
[11] = system: MOLT-4 leukemia
[12] = system: HCC-2998 colon
[13] = system: OVCAR-8 ovarian
[14] = system: NCI-H226 lung
[15] = system: UO-31 renal
[16] = system: HOP-92 NSCLC
[17] = system: SF-539 CNS
[18] = system: CAKI-1 renal
[19] = system: HT29 colon
[20] = system: SW-620 colon
[21] = system: HL-60(TB) leukemia
[22] = system: NCI/ADR-RES ovarian
[23] = system: MDA-N
[24] = system: CCRF-CEM leukemia
[25] = system: RXF 393 renal
[26] = system: UACC-257 melanoma
[27] = system: SNB-19 CNS
[28] = system: NCI-H23 lung
[29] = system: OVCAR-3 ovarian
[30] = system: K-562 leukemia
[31] = system: SN12C renal
[32] = system: SF-268 CNS
[33] = system: ACHN renal
[34] = system: OVCAR-4 ovarian
[35] = system: SK-MEL-5 melanoma
[36] = system: NCI-H460 lung
[37] = system: SR leukemia
[38] = system: HCT-116 colon
[39] = system: SK-MEL-2 melanoma
[40] = system: UACC-62 melanoma
[41] = system: 786-0 renal
[42] = system: COLO 205 colon
[43] = system: SF-295 CNS
[44] = system: DU-145 prostate
[45] = system: NCI-H522 lung
[46] = system: LOX IMVI melanoma
[47] = system: M14 melanoma
[48] = system: MDA-MB-231 breast
[49] = system: HCT-15 colon
[50] = system: HOP-62 NSCLC
[51] = system: EKVX NSCLC
[52] = system: SNB-75 CNS
[53] = system: SK-OV-3 ovarian
[54] = system: T-47D breast
[55] = system: TK-10 renal
[56] = system: KM12 colon
[57] = system: HS 578T breast
[58] = system: IGROV1 ovarian
[59] = system: A549 NSCLC
[60] = system: M19-MEL melanoma
[61] = system: KM20L2 colon
[62] = system: DMS 114 small cell lung
[63] = system: DLD-1 colon
[64] = system: LXFL 529 NSCLC
[65] = system: DMS 273 small cell lung
[66] = system: HOP-18 NSCLC

C=CCN1C(=O)CNC1=S
> 100 µM: TGI [1] | TGI [2] | TGI [3] | TGI [4] | TGI [5] | TGI [6] | TGI [7] | TGI [8] | TGI [9] | TGI [10] | TGI [11] | TGI [12] | TGI [13] | TGI [14] | TGI [15] | TGI [16] | TGI [17] | TGI [18] | TGI [19] | TGI [20] | TGI [22] | TGI [23] | TGI [25] | TGI [26] | TGI [27] | TGI [28] | TGI [29] | TGI [30] | TGI [31] | TGI [32] | TGI [33] | TGI [34] | TGI [35] | TGI [36] | TGI [37] | TGI [38] | TGI [39] | TGI [40] | TGI [41] | TGI [42] | TGI [43] | TGI [44] | TGI [45] | TGI [46] | TGI [47] | TGI [48] | TGI [49] | TGI [50] | TGI [51] | TGI [52] | TGI [53] | TGI [54] | TGI [55] | TGI [56] | TGI [57] | TGI [58] | TGI [59]
78.9 µM: TGI [21]
77.6 µM: TGI [24]

CCCCCCCCCCCC(=O)N(CCCCCCCCCCC(=O)O)CC(O)C(O)C(OC1OC(CO)C(O)C(O)C1O)C(O)CO (stereo unspecified)
> 100 µM: TGI [1] | TGI [2] | TGI [3] | TGI [4] | TGI [5] | TGI [6] | TGI [7] | TGI [8] | TGI [9] | TGI [10] | TGI [11] | TGI [12] | TGI [13] | TGI [14] | TGI [15] | TGI [16] | TGI [17] | TGI [18] | TGI [19] | TGI [20] | TGI [21] | TGI [22] | TGI [23] | TGI [24] | TGI [25] | TGI [26] | TGI [27] | TGI [28] | TGI [29] | TGI [30] | TGI [31] | TGI [32] | TGI [33] | TGI [34] | TGI [35] | TGI [36] | TGI [37] | TGI [38] | TGI [39] | TGI [40] | TGI [41] | TGI [42] | TGI [43] | TGI [44] | TGI [45] | TGI [46] | TGI [47] | TGI [48] | TGI [49] | TGI [50] | TGI [51] | TGI [52] | TGI [53] | TGI [54] | TGI [55] | TGI [56] | TGI [57] | TGI [58] | TGI [59]

N#CC1(C#N)C(c2ccc(C3C(C#N)(C#N)C3(C#N)C#N)cc2)C1(C#N)C#N
> 100 µM: TGI [1] | TGI [60] | TGI [2] | TGI [61] | TGI [6] | TGI [8] | TGI [10] | TGI [11] | TGI [12] | TGI [13] | TGI [15] | TGI [16] | TGI [17] | TGI [18] | TGI [19] | TGI [20] | TGI [21] | TGI [24] | TGI [25] | TGI [26] | TGI [27] | TGI [28] | TGI [62] | TGI [29] | TGI [63] | TGI [30] | TGI [31] | TGI [32] | TGI [33] | TGI [64] | TGI [34] | TGI [35] | TGI [36] | TGI [39] | TGI [40] | TGI [65] | TGI [41] | TGI [42] | TGI [43] | TGI [45] | TGI [46] | TGI [47] | TGI [49] | TGI [50] | TGI [51] | TGI [52] | TGI [53] | TGI [55] | TGI [56] | TGI [58] | TGI [59] | TGI [66]

C1C[OH+]CCNCC[OH+]CC[OH+]CCN1.O.[Cl-].[Pt+4]
> 100 µM: TGI [2] | TGI [61] | TGI [4] | TGI [6] | TGI [8] | TGI [10] | TGI [11] | TGI [12] | TGI [13] | TGI [14] | TGI [15] | TGI [17] | TGI [18] | TGI [19] | TGI [20] | TGI [21] | TGI [24] | TGI [26] | TGI [27] | TGI [29] | TGI [63] | TGI [30] | TGI [31] | TGI [32] | TGI [33] | TGI [64] | TGI [34] | TGI [35] | TGI [36] | TGI [38] | TGI [39] | TGI [40] | TGI [65] | TGI [41] | TGI [42] | TGI [43] | TGI [46] | TGI [49] | TGI [50] | TGI [52] | TGI [53] | TGI [55] | TGI [56] | TGI [58] | TGI [59] | TGI [66]
> 10 µM: TGI [16] | TGI [47]
inactive: GI50 [2] > 100 µM | GI50 [61] > 100 µM | GI50 [4] > 100 µM | GI50 [6] > 100 µM | GI50 [8] > 100 µM | GI50 [10] > 100 µM | GI50 [11] > 100 µM | GI50 [12] > 100 µM | GI50 [13] > 100 µM | GI50 [14] > 100 µM | GI50 [15] > 100 µM | GI50 [16] > 10 µM | GI50 [17] > 100 µM | GI50 [18] > 100 µM | GI50 [19] > 100 µM | GI50 [20] > 100 µM | GI50 [21] > 100 µM | GI50 [24] > 100 µM | GI50 [26] > 100 µM | GI50 [27] > 100 µM | GI50 [29] > 100 µM | GI50 [63] > 100 µM | GI50 [30] > 100 µM | GI50 [31] > 100 µM | GI50 [32] > 100 µM | GI50 [33] > 100 µM | GI50 [64] > 100 µM | GI50 [34] > 100 µM | GI50 [35] > 100 µM | GI50 [36] > 100 µM | GI50 [38] > 100 µM | GI50 [39] > 100 µM | GI50 [40] > 100 µM | GI50 [65] > 100 µM | GI50 [41] > 100 µM | GI50 [42] > 100 µM | GI50 [43] > 100 µM | GI50 [46] > 100 µM | GI50 [47] > 10 µM | GI50 [49] > 100 µM | GI50 [50] > 100 µM | GI50 [52] > 100 µM | GI50 [53] > 100 µM | GI50 [55] > 100 µM | GI50 [56] > 100 µM | GI50 [58] > 100 µM | GI50 [59] > 100 µM | GI50 [66] > 100 µM
